Data as given in PubChem BioAssay (NCI).
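In this assay, cells in 96-well plates receive the compound at five concentrations for 48 hours. Endpoints are linearly interpolated between the surrounding concentrations. Abbreviation: GI50, concentration required for 50% inhibition of growth. At the TGI there is no net growth.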

Tests used:
Assay in all cases: NCI-60 cell line screen, 48 h
[1] = tested on: SK-MEL-28 melanoma
[2] = tested on: SK-MEL-5 melanoma
[3] = tested on: SK-MEL-2 melanoma
[4] = tested on: HL-60(TB) leukemia
[5] = tested on: NCI-H522 lung
[6] = tested on: NCI-H460 lung
[7] = tested on: UO-31 renal
[8] = tested on: UACC-257 melanoma
[9] = tested on: OVCAR-5 ovarian
[10] = tested on: OVCAR-8 ovarian
[11] = tested on: MDA-MB-435
[12] = tested on: MALME-3M melanoma
[13] = tested on: SW-620 colon
[14] = tested on: HCT-116 colon
[15] = tested on: ACHN renal
[16] = tested on: SF-539 CNS
[17] = tested on: KM12 colon
[18] = tested on: MOLT-4 leukemia
[19] = tested on: HOP-92 NSCLC
[20] = tested on: CAKI-1 renal
[21] = tested on: CCRF-CEM leukemia
[22] = tested on: BT-549 breast
[23] = tested on: NCI/ADR-RES ovarian
[24] = tested on: T-47D breast
[25] = tested on: IGROV1 ovarian
[26] = tested on: HCT-15 colon
[27] = tested on: RXF 393 renal
[28] = tested on: UACC-62 melanoma
[29] = tested on: NCI-H23 lung
[30] = tested on: SF-268 CNS
[31] = tested on: U251 CNS
[32] = tested on: OVCAR-3 ovarian
[33] = tested on: MDA-MB-231 breast
[34] = tested on: HT29 colon
[35] = tested on: OVCAR-4 ovarian
[36] = tested on: RPMI-8226 leukemia
[37] = tested on: SNB-75 CNS
[38] = tested on: COLO 205 colon
[39] = tested on: A498 renal
[40] = tested on: A549 NSCLC
[41] = tested on: K-562 leukemia
[42] = tested on: HS 578T breast
[43] = tested on: DU-145 prostate
[44] = tested on: NCI-H226 lung
[45] = tested on: HOP-62 NSCLC
[46] = tested on: PC-3 prostate
[47] = tested on: SK-OV-3 ovarian
[48] = tested on: SNB-19 CNS
[49] = tested on: LOX IMVI melanoma
[50] = tested on: EKVX NSCLC
[51] = tested on: SN12C renal
[52] = tested on: 786-0 renal
[53] = tested on: TK-10 renal
[54] = tested on: M14 melanoma
[55] = tested on: HCC-2998 colon
[56] = tested on: SF-295 CNS
[57] = tested on: MCF7 breast
[58] = tested on: SR leukemia

Cc1ccc(C(=Nc2ccccc2)N=P(c2ccccc2)(c2ccccc2)c2ccccc2)cc1
GI50 [1]: 1630 nM
TGI [1]: 10000 nM
GI50 [2]: 739 nM
TGI [2]: 1930 nM
GI50 [3]: 1310 nM
TGI [3]: 5440 nM
GI50 [4]: 235 nM
TGI [4]: 593 nM
GI50 [5]: 1440 nM
TGI [5]: 9730 nM
GI50 [6]: 1220 nM
TGI [6]: 4230 nM
GI50 [7]: 1320 nM
TGI [7]: 3800 nM
GI50 [8]: 1320 nM
TGI [8]: 3740 nM
GI50 [9]: 2980 nM
GI50 [10]: 3340 nM
TGI [10]: > 100000 nM
GI50 [11]: 955 nM
TGI [11]: 3230 nM
GI50 [12]: 288 nM
TGI [12]: 946 nM
GI50 [13]: 1260 nM
GI50 [14]: 986 nM
TGI [14]: 3920 nM
GI50 [15]: 1340 nM
GI50 [16]: 2180 nM
TGI [16]: 8680 nM
GI50 [17]: 1070 nM
TGI [17]: 4710 nM
GI50 [18]: 328 nM
TGI [18]: 1290 nM
TGI [19]: 1400 nM
GI50 [20]: 1820 nM
GI50 [21]: 2510 nM
TGI [21]: 6500 nM
GI50 [22]: 1540 nM
TGI [22]: 3960 nM
GI50 [23]: 3610 nM
GI50 [24]: 1240 nM
GI50 [25]: 621 nM
TGI [25]: 4960 nM
GI50 [26]: 1220 nM
GI50 [27]: 695 nM
TGI [27]: 2520 nM
GI50 [28]: 1190 nM
TGI [28]: 5070 nM
GI50 [29]: 3110 nM
TGI [29]: 12500 nM
GI50 [30]: 1790 nM
GI50 [31]: 1150 nM
GI50 [32]: 1120 nM
GI50 [33]: 2210 nM
TGI [33]: 7750 nM
GI50 [34]: 1150 nM
TGI [34]: > 36800 nM
GI50 [35]: 1530 nM
TGI [35]: > 31000 nM
GI50 [36]: 1180 nM
TGI [36]: 2860 nM
GI50 [37]: 2440 nM
TGI [37]: 14800 nM
GI50 [38]: 833 nM
TGI [38]: 2320 nM
GI50 [39]: 1720 nM
TGI [39]: 5320 nM
GI50 [40]: 1430 nM
TGI [40]: 15000 nM
GI50 [41]: 4220 nM
TGI [41]: > 100000 nM
GI50 [42]: 1480 nM
TGI [42]: 7840 nM
GI50 [43]: 2090 nM
GI50 [44]: 1570 nM
TGI [44]: 9380 nM
GI50 [45]: 2140 nM
GI50 [46]: 1740 nM
TGI [46]: 4040 nM
GI50 [47]: 1980 nM
TGI [47]: 5220 nM
GI50 [48]: 2120 nM
GI50 [49]: 949 nM
TGI [49]: 4280 nM
GI50 [50]: 1440 nM
GI50 [51]: 1410 nM
TGI [51]: 9000 nM
GI50 [52]: 1710 nM
TGI [52]: 4290 nM
GI50 [53]: 1180 nM
TGI [53]: 4140 nM
GI50 [54]: 1810 nM
TGI [54]: 8770 nM
GI50 [55]: 1220 nM
TGI [55]: 3720 nM
GI50 [56]: 875 nM
TGI [56]: 7120 nM
GI50 [57]: 1430 nM
TGI [57]: 4850 nM
GI50 [58]: 1670 nM
TGI [58]: 14900 nM
